In paper PMC5007552, “The hVps34‐SGK3 pathway alleviates sustained PI3K/Akt inhibition by stimulating mTORC1 and tumour growth” (The EMBO Journal, 2016):
Several values for one entry are separate records, joined by “and”; a condition that tells them apart may be missing. Equal values may be shown once.

System: ZR-75-1 cells
Experiment: NanoString human kinome mRNA quantification
Format: cell-based
From the text: Human mRNAs were hybridised to NanoString human kinome and control code sets, then subjected to quantification using NanoString software. […] To permit data compaction, and simple kinome‐wide comparisons, the fold changes are log2 transformed. […] Cell pellets were resuspended at a concentration of ~6,500 cells/μl in RLT buffer (Qiagen). […] For total copy numbers, triplicate normalised count values were averaged, and to calculate fold induction, means were divided by triplicate mean values from matched DMSO controls. P‐values were calculated using unpaired t‐test (GraphPad Prism software) by employing treated and control count data for each kinase mRNA.

For NC1(c2ccc(-c3nc4ccn5c(=O)[nH]nc5c4cc3-c3ccccc3)cc2)CCC1 [MK-2206], the “BRD4 Normalised counts” value (BRD4 mRNA, single replicates) was 2584.75 and 2591.35 and 2590.29, the “BRDT Average normalised counts” value (BRDT mRNA, average of 3 replicates) was 1 and the “BRDT Normalised counts” value (BRDT mRNA, single replicates) was 1. For the same compound, the “BRSK1 Average normalised counts” value (BRSK1 mRNA, average of 3 replicates) was 145.583, the “BRSK1 Normalised counts” value (BRSK1 mRNA, single replicates) was 127.82 and 151.05 and 157.88 and the “BRSK2 Average normalised counts” value (BRSK2 mRNA, average of 3 replicates) was 4.607. The “BRSK2 Normalised counts” value (BRSK2 mRNA, single replicates) was 2.39 and 5.97 and 5.46, the “BTK Average normalised counts” value (BTK mRNA, average of 3 replicates) was 1 and the “BTK Normalised counts” value (BTK mRNA, single replicates) was 1. For the same compound, the “BUB1B Average normalised counts” value (BUB1B mRNA, average of 3 replicates) was 1729.87, the “BUB1B Normalised counts” value (BUB1B mRNA, single replicates) was 1717.6 and 1711.31 and 1760.7 and the “BUB1 Average normalised counts” value (BUB1 mRNA, average of 3 replicates) was 648.95. The “BUB1 Normalised counts” value (BUB1 mRNA, single replicates) was 644.12 and 665.35 and 637.38, the “C9orf96 Average normalised counts” value (C9orf96 mRNA, average of 3 replicates) was 2.773 and the “C9orf96 Normalised counts” value (C9orf96 mRNA, single replicates) was 1 and 4.24 and 3.08. The “C21orf7 Average normalised counts” value (C21orf7 mRNA, average of 3 replicates) was 1, the “C21orf7 Normalised counts” value (C21orf7 mRNA, single replicates) was 1 and the “CAMK1D average normalised counts” value (CAMK1D mRNA) was 339.763. The “CAMK1D normalised counts (replicates)” value (CAMK1D mRNA) was 364.15 and 317.85 and 337.29, the “CAMK1G average normalised counts” value (CAMK1G mRNA) was 1 and the “CAMK1G normalised counts (replicates)” value (CAMK1G mRNA) was 1. For the same compound, the “CAMK1 average normalised counts” value (CAMK1 mRNA) was 4.053, the “CAMK1 normalised counts (replicates)” value (CAMK1 mRNA) was 4.2 and 2.5 and 5.46 and the “CAMK2A average normalised counts” value (CAMK2A mRNA) was 1. For the same compound, the “CAMK2A normalised counts (replicates)” value (CAMK2A mRNA) was 1, the “CAMK2B average normalised counts” value (CAMK2B mRNA) was 228.397 and the “CAMK2B normalised counts (replicates)” value (CAMK2B mRNA) was 211.86. For the same compound, the “CAMK2D average normalised counts” value (CAMK2D mRNA) was 829.067, the “CAMK2D normalised counts (replicates)” value (CAMK2D mRNA) was 815.91 and 824.33 and 846.96 and the “CAMK2G average normalised counts” value (CAMK2G mRNA) was 2774.38. The “CAMK2G normalised counts (replicates)” value (CAMK2G mRNA) was 2695.65 and 2845.89 and 2781.61, the “CAMK4 average normalised counts” value (CAMK4 mRNA) was 3.433 and the “CAMK4 normalised counts (replicates)” value (CAMK4 mRNA) was 4.2 and 5.1 and 1. For the same compound, the “CAMKK1 average normalised counts” value (CAMKK1 mRNA) was 313.75, the “CAMKK1 normalised counts (replicates)” value (CAMKK1 mRNA) was 326.89 and 314.38 and 299.98 and the “CAMKK2 average normalised counts” value (CAMKK2 mRNA) was 584.02. The “CAMKK2 normalised counts (replicates)” value (CAMKK2 mRNA) was 568.67 and 607.14 and 576.25, the “CAMKV average normalised counts” value (CAMKV mRNA) was 1.5 and the “CAMKV normalised counts (replicates)” value (CAMKV mRNA) was 1 (2×) and 2.5. The “CASK average normalised counts” value (CASK mRNA) was 727.217, the “CASK normalised counts (replicates)” value (CASK mRNA) was 714.11 and 680.12 and 787.42 and the “CCL2 average normalised counts” value (CCL2 mRNA) was 6.427. For the same compound, the “CCL2 normalised counts (replicates)” value (CCL2 mRNA) was 9.66 and 3.37 and 6.25, the “CDC7 average normalised counts” value (CDC7 mRNA) was 336.743 and the “CDC7 normalised counts (replicates)” value (CDC7 mRNA) was 335.98 and 336.96 and 337.29. The “CDC42BPA average normalised counts” value (CDC42BPA mRNA) was 675.63, the “CDC42BPA normalised counts (replicates)” value (CDC42BPA mRNA) was 678.66 and 677.51 and 670.72 and the “CDC42BPB average normalised counts” value (CDC42BPB mRNA) was 1143.02. For the same compound, the “CDC42BPB normalised counts (replicates)” value (CDC42BPB mRNA) was 1097.69 and 1178.77 and 1152.6, the “CDC42BPG average normalised counts” value (CDC42BPG mRNA) was 104.73 and the “CDC42BPG normalised counts (replicates)” value (CDC42BPG mRNA) was 110.55 and 108.48 and 95.16. For the same compound, the “CDK1 average normalised counts” value (CDK1 mRNA) was 3517.89, the “CDK1 normalised counts (replicates)” value (CDK1 mRNA) was 3504.63 and 3450.53 and 3598.5 and the “CDK2 average normalised counts” value (CDK2 mRNA) was 369.187. The “CDK2 normalised counts (replicates)” value (CDK2 mRNA) was 366.88 and 370.84 and 369.84, the “CDK3 average normalised counts” value (CDK3 mRNA) was 56.79 and the “CDK3 normalised counts (replicates)” value (CDK3 mRNA) was 49.65 and 58.1 and 62.62. The “CDK4 average normalised counts” value (CDK4 mRNA) was 2610.07, the “CDK4 normalised counts (replicates)” value (CDK4 mRNA) was 2590.21 and 2633.05 and 2606.96 and the “CDK5 average normalised counts” value (CDK5 mRNA) was 1339.04. For the same compound, the “CDK5 normalised counts (replicates)” value (CDK5 mRNA) was 1332.2 and 1264.78 and 1420.13, the “CDK6 average normalised counts” value (CDK6 mRNA) was 35.6167 and the “CDK6 normalised counts (replicates)” value (CDK6 mRNA) was 34.2 and 34.64 and 38.01. For the same compound, the “CDK7 average normalised counts” value (CDK7 mRNA) was 605.207, the “CDK7 normalised counts (replicates)” value (CDK7 mRNA) was 585.94 and 619.3 and 610.38 and the “CDK8 average normalised counts” value (CDK8 mRNA) was 908.99. For the same compound, the “CDK8 normalised counts (replicates)” value (CDK8 mRNA) was 898.63 and 942.48 and 885.86, the “CDK9 average normalised counts” value (CDK9 mRNA) was 879.65 and the “CDK9 normalised counts (replicates)” value (CDK9 mRNA) was 853.18 and 899.91 and 885.86. The “CDK10 average normalised counts” value (CDK10 mRNA) was 437.29, the “CDK10 normalised counts (replicates)” value (CDK10 mRNA) was 440.51 and 431.66 and 439.7 and the “CDK11A average normalised counts” value (CDK11A mRNA) was 420.55. For the same compound, the “CDK11A normalised counts (replicates)” value (CDK11A mRNA) was 435.96 and 389.96 and 435.73, the “CDK12 average normalised counts” value (CDK12 mRNA) was 928.887 and the “CDK12 normalised counts (replicates)” value (CDK12 mRNA) was 909.53 and 946.82 and 930.31. For the same compound, the “CDK13 average normalised counts” value (CDK13 mRNA) was 1530.42, the “CDK13 normalised counts (replicates)” value (CDK13 mRNA) was 1564.9 and 1505.42 and 1520.95 and the “CDK14 average normalised counts” value (CDK14 mRNA) was 158.347. The “CDK14 normalised counts (replicates)” value (CDK14 mRNA) was 151.46 and 173.64 and 149.94, the “CDK15 average normalised counts” value (CDK15 mRNA) was 1 and the “CDK15 normalised counts (replicates)” value (CDK15 mRNA) was 1. For the same compound, the “CDK16 average normalised counts” value (CDK16 mRNA) was 3907.09, the “CDK16 normalised counts (replicates)” value (CDK16 mRNA) was 3890.94 and 3866.66 and 3963.68 and the “CDK17 average normalised counts” value (CDK17 mRNA) was 1410.09. The “CDK17 normalised counts (replicates)” value (CDK17 mRNA) was 1395.83 and 1406.38 and 1428.07 and the “CDK18 average normalised counts” value (CDK18 mRNA) was 99.86.
